This note sets out measurements from ChEMBL document CHEMBL1770149, “Semisynthesis of triptolide analogues: effect of γ-lactone and C-14 substituents on cytotoxic activities” (Bioorg Med Chem Lett, 2011).

Where only a bound is given, the exact number is not on record here.

Assay [1] has as its system HT-29. Briefly: Cytotoxicity against human HT-29 cells. Type of assay: functional, cell-based.
Assay [2] concerns A549. Put plainly: Cytotoxicity against human A549 cells. Type of assay: functional, cell-based.

Regarding `CC(C)[C@]12O[C@H]1[C@@H]1O[C@@]13[C@H]1CCC4=C(COC4=O)[C@@H]1C[C@@H]1O[C@@]13[C@H]2O`, the IC50 in assay [1] came out at 78 nM; in assay [2] it was 1690 nM.

For the compound `Cc1occ2c1CC[C@H]1[C@H]2C[C@@H]2O[C@@]23[C@H](O)[C@@]2(C(C)C)O[C@H]2[C@@H]2O[C@@]123`, the IC50 in assay [1] is 2010 nM; in assay [2], 7850 nM.

In the case of `CCc1occ2c1CC[C@H]1[C@H]2C[C@@H]2O[C@@]23[C@H](O)[C@@]2(C(C)C)O[C@H]2[C@@H]2O[C@@]123`, the IC50 in assay [1] and in assay [2] was greater than 13400 nM throughout.

With `Cc1occ2c1CC[C@H]1[C@H]2C[C@@H]2O[C@]23[C@]12O[C@H]2[C@@H]1O[C@]1(C(C)C)[C@]3(C)O`, the half-inhibitory concentration (IC50) in assay [1] and in assay [2] was greater than 13400 nM each time.

Regarding `Cc1occ2c1CC[C@H]1[C@H]2C[C@@H]2O[C@]23[C@]12O[C@H]2[C@@H]1O[C@]1(C(C)C)[C@@]3(C)O`, the IC50 in assay [1] and in assay [2] was greater than 13400 nM each time.

Turning to `CC(C)[C@]12O[C@H]1[C@@H]1O[C@@]13[C@H]1CCC4=C(COC4=O)[C@@H]1C[C@@H]1O[C@@]13[C@@]2(C)O`, the values for the half-maximal inhibitory concentration (IC50) in assay [1] and in assay [2] were 22 nM and 350 nM, respectively.

As to `CC[C@@]1(O)[C@]23O[C@H]2C[C@H]2C4=C(CC[C@@H]2[C@@]32O[C@H]2[C@@H]2O[C@@]21C(C)C)C(=O)OC4`, the IC50 came to 390 nM in assay [1] and 2830 nM in assay [2].

For the compound `CC(C)[C@]12O[C@H]1[C@@H]1O[C@@]13[C@H]1CCC4=C(COC4=O)[C@@H]1C[C@@H]1O[C@@]13[C@]21CO1`, the IC50 is 0.65 nM in assay [1] and 53 nM in assay [2].

Consider `CCc1c2c(nc3ccc(O)cc13)-c1cc3c(c(=O)n1C2)COC(=O)[C@]3(O)CC` [7-ETHYL-10-HYDROXYCAMPTOTHECIN], for which the IC50 came out at 5.9 nM in assay [1] and 47 nM in assay [2].

With `CC(=O)O[C@@]12CO[C@@H]1C[C@H](O)[C@@]1(C)C(=O)[C@H](O)C3=C(C)[C@@H](OC(=O)[C@H](O)[C@@H](NC(=O)OC(C)(C)C)c4ccccc4)C[C@@](O)([C@@H](OC(=O)c4ccccc4)[C@H]21)C3(C)C` [DOCETAXEL], the values for the concentration for half-maximal inhibition (IC50) in assay [1] and in assay [2] were 0.75 nM and 1.2 nM, respectively.

Turning to `CC(C)[C@]12O[C@H]1[C@@H]1O[C@]13[C@]1(O[C@H]1C[C@H]1C4=C(CC[C@@]13C)C(=O)OC4)[C@@H]2O` [TRIPTOLIDE], the figures for the IC50 in assay [1] and in assay [2] were 2.1 nM and 19 nM, respectively.

With `CC(C)[C@]12O[C@H]1[C@@H]1O[C@@]13[C@@]1(C)CCC4=C(COC4=O)[C@@H]1C[C@@H]1O[C@@]13C2=O` [TRIPTONIDE], the IC50 was determined as 8.4 nM in assay [1] and 53 nM in assay [2].
